The test has as its target T1, cathepsin B (Homo sapiens, UniProt P07858).
T1 construct: purchased CalBiochem
The test is described as follows: Cathepsin B cleavage of 7A and 7B. It is filed as biochemical. Particulars: substrate 100 μM, activated cathepsin B 100 nM, 50 mM sodium acetate buffer pH 5, 37° C., 16 hrs, presence or absence of 1 mM cysteine; HPLC. The method, then: Model compounds with a cleavable peptide unit and a heterocyclic self-immolative moiety, and conjugates of Formula I can be tested for stability and kinetics of enzymatic hydrolysis by the methods of de Groot, et al (1999) J. Med. Chem. 42(25):5277-5283.
FIG. 2 is a schematic representation of the cleavage mechanism.
A cathepsin B (CalBiochem) stock solution at 28.4 μM was diluted to 1 μM in 50 mM sodium acetate buffer pH 7.5, containing 2 mM DTT. Activation was carried out at 37° C. for 15 minutes.
Substrate compounds 7A and 7B were diluted to 100 μM in 50 mM sodium acetate buffer pH 5. Activated cathepsin B was added to a final concentration of 100 nM and the cleavage reaction was carried out at 37° C. for 16 hrs in the presence or absence of 1 mM cysteine.
Reversed-phase separation of cleavage products was carried out using an Agilent 1100 HPLC system. UV signal was monitored at 214, 254 and 380 nm. A Poroshell 300SB-C18 column (No.660750-902) from Agilent was used. Mobile phases A and B contained 0.05% TFA aqueous solution and CH3CN containing 0.05% TFA, respectively. […] The cleavage product of 4-nitroaniline was monitored by its distinct absorbance at 380 nm in the void volume. […]

The structures appear in SMILES notation.

On to `CC(C)[C@@H](NC(=O)OC(C)(C)C)C(=O)N[C@H](CCCNC(N)=O)C(=O)Nc1nc(C(F)(F)F)c(COC(=O)Nc2ccc([N+](=O)[O-])cc2)s1` [Compound 7A], for which the “cleavage reaction (disappearance of substrate, release of 4-nitroaniline)” value is on record as “complete”.

On to `CC(C)[C@@H](NC(=O)CCCCCN1C(=O)C=CC1=O)C(=O)N[C@H](CCCNC(N)=O)C(=O)Nc1nc(C(F)(F)F)c(COC(=O)Nc2ccc([N+](=O)[O-])cc2)s1` [Compound 7B], for which the “cleavage reaction (disappearance of substrate, release of 4-nitroaniline)” value was “complete”.

The values above are taken from patent US7375078B2, “Heterocyclic self-immolative linkers and conjugates” (Genentech, Inc., priority 2004, dated 2008).
